Experimental data published in article PMC7534598 (iScience, 2020).

Experiments:
furin [1] = target: T1, furin (Homo sapiens, UniProt P09958); assay: enzyme inhibition at a single concentration of […]; type: biochemical; details: read-out: % inhibition at 100 μM
furin [2] = target: T1, furin; type: biochemical

T1 sequence (P09958 108-794): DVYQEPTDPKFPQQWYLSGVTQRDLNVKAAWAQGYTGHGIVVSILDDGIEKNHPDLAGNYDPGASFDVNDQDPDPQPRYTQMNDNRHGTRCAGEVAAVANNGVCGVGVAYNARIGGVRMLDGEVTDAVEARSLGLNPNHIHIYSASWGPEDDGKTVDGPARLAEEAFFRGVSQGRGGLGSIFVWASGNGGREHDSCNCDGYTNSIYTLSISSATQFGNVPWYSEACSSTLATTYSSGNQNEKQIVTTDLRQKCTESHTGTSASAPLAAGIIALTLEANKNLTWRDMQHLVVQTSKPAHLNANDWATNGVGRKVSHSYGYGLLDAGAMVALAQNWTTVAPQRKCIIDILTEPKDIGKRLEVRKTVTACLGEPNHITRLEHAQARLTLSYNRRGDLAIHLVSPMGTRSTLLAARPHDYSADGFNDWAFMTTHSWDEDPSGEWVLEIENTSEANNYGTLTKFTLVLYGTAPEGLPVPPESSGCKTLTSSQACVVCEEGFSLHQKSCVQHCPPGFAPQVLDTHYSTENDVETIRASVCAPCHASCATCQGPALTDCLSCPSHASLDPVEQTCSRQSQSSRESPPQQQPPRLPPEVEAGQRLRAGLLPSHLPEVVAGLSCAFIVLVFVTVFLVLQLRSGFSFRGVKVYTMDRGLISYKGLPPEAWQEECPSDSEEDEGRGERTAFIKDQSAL

Row | SMILES | inhibition at 100 µM (furin [1]) [%] | IC50 (furin [2]) [µM]
1 | Nc1nc(N)c2nc(CNc3ccc(C(=O)N[C@@H](CCC(=O)O)C(=O)O)cc3)cnc2n1 [aminopterin] | > 70 | 
2 | N=C(N)c1ccc(/N=N/Nc2ccc(C(=N)N)cc2)cc1 [diminazene] |  | 5.42 ± 0.11
3 | CN(Cc1cnc2nc(N)nc(N)c2n1)c1ccc(C(=O)N[C@@H](CCC(=O)O)C(=O)O)cc1 [methotrexate] | > 70 | 
4 | COc1cc(C2Oc3cc([C@H]4Oc5cc(O)cc(O)c5C(=O)[C@@H]4O)ccc3OC2CO)ccc1O (stereo partly shown) [silybin] | > 70 | 
